Data published in PubChem BioAssay AID1963972 (Molecular Pharmacology Branch, DTP, NCI, 2024).

System: 945468-187-T-J2-PDC spheroids viability
Assay: Anticancer human tumor 945468-187-T-J2-PDC patient-derived rectal carcinoma cell line growth inhibition [PI3K]
Details: spheroids with HUVEC and MSC; for IC50: curve of first compound; for viability, T/C: stronger effect = lower value
In short: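 Complex 3D spheroids (cancer cells + endothelial HUVEC + mesenchymal stem cells); drug pairs of targeted agent x inavolisib/alpelisib/duvelisib/copanlisib; half-log series from ~Cmax, max 10 microM if Cmax unknown; endpoint viability.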

[1] = second compound 0.0316 µM, first compound 0.000316 µM
[2] = second compound 0.0316 µM, first compound 0.001 µM
[3] = second compound 0.0316 µM, first compound 0.00316 µM
[4] = second compound 0.0316 µM, first compound 0.01 µM
[5] = second compound 0.0316 µM, first compound 0.0316 µM
[6] = second compound 0.0316 µM, first compound 0.1 µM
[7] = second compound 0.1 µM, first compound 0.000316 µM
[8] = second compound 0.1 µM, first compound 0.001 µM
[9] = second compound 0.1 µM, first compound 0.00316 µM
[10] = second compound 0.1 µM, first compound 0.01 µM
[11] = second compound 0.1 µM, first compound 0.0316 µM
[12] = second compound 0.1 µM, first compound 0.1 µM
[13] = second compound 0.316 µM, first compound 0.000316 µM
[14] = second compound 0.316 µM, first compound 0.001 µM
[15] = second compound 0.316 µM, first compound 0.00316 µM
[16] = second compound 0.316 µM, first compound 0.01 µM
[17] = second compound 0.316 µM, first compound 0.0316 µM
[18] = second compound 0.316 µM, first compound 0.1 µM
[19] = second compound 1 µM, first compound 0.000316 µM
[20] = second compound 1 µM, first compound 0.001 µM
[21] = second compound 1 µM, first compound 0.00316 µM
[22] = second compound 1 µM, first compound 0.01 µM
[23] = second compound 1 µM, first compound 0.0316 µM
[24] = second compound 1 µM, first compound 0.1 µM
[25] = second compound 3.16 µM, first compound 0.000316 µM
[26] = second compound 3.16 µM, first compound 0.001 µM
[27] = second compound 3.16 µM, first compound 0.00316 µM
[28] = second compound 3.16 µM, first compound 0.01 µM
[29] = second compound 3.16 µM, first compound 0.0316 µM
[30] = second compound 3.16 µM, first compound 0.1 µM
[31] = second compound 10 µM, first compound 0.000316 µM
[32] = second compound 10 µM, first compound 0.001 µM
[33] = second compound 10 µM, first compound 0.00316 µM
[34] = second compound 10 µM, first compound 0.01 µM
[35] = second compound 10 µM, first compound 0.0316 µM
[36] = second compound 10 µM, first compound 0.1 µM
[37] = second compound 0.0316 µM, first compound 0.316 µM
[38] = second compound 0.0316 µM, first compound 1 µM
[39] = second compound 0.0316 µM, first compound 3.16 µM
[40] = second compound 0.0316 µM, first compound 10 µM
[41] = second compound 0.1 µM, first compound 0.316 µM
[42] = second compound 0.1 µM, first compound 1 µM
[43] = second compound 0.1 µM, first compound 3.16 µM
[44] = second compound 0.1 µM, first compound 10 µM
[45] = second compound 0.316 µM, first compound 0.316 µM
[46] = second compound 0.316 µM, first compound 1 µM
[47] = second compound 0.316 µM, first compound 3.16 µM
[48] = second compound 0.316 µM, first compound 10 µM
[49] = second compound 1 µM, first compound 0.316 µM
[50] = second compound 1 µM, first compound 1 µM
[51] = second compound 1 µM, first compound 3.16 µM
[52] = second compound 1 µM, first compound 10 µM
[53] = second compound 3.16 µM, first compound 0.316 µM
[54] = second compound 3.16 µM, first compound 1 µM
[55] = second compound 3.16 µM, first compound 3.16 µM
[56] = second compound 3.16 µM, first compound 10 µM
[57] = second compound 10 µM, first compound 0.316 µM
[58] = second compound 10 µM, first compound 1 µM
[59] = second compound 10 µM, first compound 3.16 µM
[60] = second compound 10 µM, first compound 10 µM
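Also: spheroids exposed to compounds for seven days before reading.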

Work on `CC(=O)c1c(C)c2cnc(Nc3ccc(N4CCNCC4)cn3)nc2n(C2CCCC2)c1=O` + CC(Nc1ncnc2nc[nH]c12)c1cc2cccc(Cl)c2c(=O)n1-c1ccccc1 yielded an IC50 (second compound 0.0316 µM) greater than 0.1 µM, an IC50 (second compound 0.1 µM) greater than 0.1 µM and an IC50 (second compound 0.316 µM) greater than 0.1 µM. The IC50 (second compound 1 µM) was greater than 0.1 µM, the IC50 (second compound 3.16 µM) was greater than 0.1 µM and the IC50 (second compound 10 µM) was greater than 0.1 µM. For the same compound, the viability, T/C [1] was 104%, the viability, T/C [2] was 80% and the viability, T/C [3] was 101%. The viability, T/C [4] was 100%, the viability, T/C [5] was 90% and the viability, T/C [6] was 122%. It also gave a viability, T/C [7] of 98.9%, a viability, T/C [8] of 101% and a viability, T/C [9] of 89.4%. For the same compound, the viability, T/C [10] was 80.3%, the viability, T/C [11] was 104% and the viability, T/C [12] was 101%. It also gave a viability, T/C [13] of 82.3%, a viability, T/C [14] of 108% and a viability, T/C [15] of 103%. It also gave a viability, T/C [16] of 98.4%, a viability, T/C [17] of 113% and a viability, T/C [18] of 88.7%. For the same compound, the viability, T/C [19] was 91.2%, the viability, T/C [20] was 103% and the viability, T/C [21] was 85.4%. It also gave a viability, T/C [22] of 89.8%, a viability, T/C [23] of 90.7% and a viability, T/C [24] of 109%. For the same compound, the viability, T/C [25] was 87.8%, the viability, T/C [26] was 87% and the viability, T/C [27] was 102%. The viability, T/C [28] was 99.5%, the viability, T/C [29] was 111% and the viability, T/C [30] was 118%. It also gave a viability, T/C [31] of 101%, a viability, T/C [32] of 100% and a viability, T/C [33] of 101%. It also gave a viability, T/C [34] of 87.9%, a viability, T/C [35] of 99.5% and a viability, T/C [36] of 121%.
`CC(C)n1nc(-c2ccc3oc(N)nc3c2)c2c(N)ncnc21` + CC(Nc1ncnc2nc[nH]c12)c1cc2cccc(Cl)c2c(=O)n1-c1ccccc1 gave an IC50 (second compound 0.0316 µM) greater than 0.1 µM, an IC50 (second compound 0.1 µM) greater than 0.1 µM and an IC50 (second compound 0.316 µM) greater than 0.1 µM. It also gave an IC50 (second compound 1 µM) greater than 0.1 µM, an IC50 (second compound 3.16 µM) greater than 0.1 µM and an IC50 (second compound 10 µM) greater than 0.1 µM. It also gave a viability, T/C [1] of 93.8%, a viability, T/C [2] of 87.3% and a viability, T/C [3] of 96.4%. It also gave a viability, T/C [4] of 107%, a viability, T/C [5] of 117% and a viability, T/C [6] of 62.8%. The viability, T/C [7] was 96.2%, the viability, T/C [8] was 94.3% and the viability, T/C [9] was 99.4%. It also gave a viability, T/C [10] of 84.2%, a viability, T/C [11] of 115% and a viability, T/C [12] of 73.5%. For the same compound, the viability, T/C [13] was 97.1%, the viability, T/C [14] was 89% and the viability, T/C [15] was 94.7%. For the same compound, the viability, T/C [16] was 134%, the viability, T/C [17] was 96.1% and the viability, T/C [18] was 71%. The viability, T/C [19] was 87.6%, the viability, T/C [20] was 136% and the viability, T/C [21] was 95.8%. It also gave a viability, T/C [22] of 93.2%, a viability, T/C [23] of 78.2% and a viability, T/C [24] of 55%. For the same compound, the viability, T/C [25] was 85.5%, the viability, T/C [26] was 107% and the viability, T/C [27] was 90.3%. It also gave a viability, T/C [28] of 106%, a viability, T/C [29] of 92.9% and a viability, T/C [30] of 62.3%. It also gave a viability, T/C [31] of 109%, a viability, T/C [32] of 84.5% and a viability, T/C [33] of 108%. For the same compound, the viability, T/C [34] was 88.4%, the viability, T/C [35] was 78.2% and the viability, T/C [36] was 82.8%.
In the case of `CC1(C)CCC(CN2CCN(c3ccc(C(=O)NS(=O)(=O)c4ccc(NCC5CCOCC5)c([N+](=O)[O-])c4)c(Oc4cnc5[nH]ccc5c4)c3)CC2)=C(c2ccc(Cl)cc2)C1` + CC(Nc1ncnc2nc[nH]c12)c1cc2cccc(Cl)c2c(=O)n1-c1ccccc1, the IC50 (second compound 0.0316 µM) is reported as greater than 10 µM, the IC50 (second compound 0.1 µM) is reported as greater than 10 µM and the IC50 (second compound 0.316 µM) is reported as greater than 10 µM. The IC50 (second compound 1 µM) was greater than 10 µM, the IC50 (second compound 3.16 µM) was greater than 10 µM and the IC50 (second compound 10 µM) was greater than 10 µM. For the same compound, the viability, T/C [5] was 91.7%, the viability, T/C [6] was 92.2% and the viability, T/C [37] was 99.8%. It also gave a viability, T/C [38] of 98.2%, a viability, T/C [39] of 94% and a viability, T/C [40] of 81%. It also gave a viability, T/C [11] of 82.3%, a viability, T/C [12] of 75.7% and a viability, T/C [41] of 84.5%. For the same compound, the viability, T/C [42] was 78.6%, the viability, T/C [43] was 96.5% and the viability, T/C [44] was 79.1%. It also gave a viability, T/C [17] of 97.1%, a viability, T/C [18] of 93.4% and a viability, T/C [45] of 93.2%. For the same compound, the viability, T/C [46] was 100%, the viability, T/C [47] was 119% and the viability, T/C [48] was 80.5%. The viability, T/C [23] was 97.4%, the viability, T/C [24] was 87.8% and the viability, T/C [49] was 103%. It also gave a viability, T/C [50] of 92.9%, a viability, T/C [51] of 107% and a viability, T/C [52] of 63.2%. For the same compound, the viability, T/C [29] was 96%, the viability, T/C [30] was 115% and the viability, T/C [53] was 84.8%. It also gave a viability, T/C [54] of 134%, a viability, T/C [55] of 102% and a viability, T/C [56] of 86.6%. For the same compound, the viability, T/C [35] was 94.5%, the viability, T/C [36] was 81.5% and the viability, T/C [57] was 104%. It also gave a viability, T/C [58] of 124%, a viability, T/C [59] of 97.7% and a viability, T/C [60] of 84.8%.
With `CCCS(=O)(=O)Nc1ccc(F)c(C(=O)c2c[nH]c3ncc(-c4ccc(Cl)cc4)cc23)c1F` + CC(Nc1ncnc2nc[nH]c12)c1cc2cccc(Cl)c2c(=O)n1-c1ccccc1 the IC50 (second compound 0.0316 µM) was 4.52 µM, the IC50 (second compound 0.1 µM) was 5.03 µM and the IC50 (second compound 0.316 µM) was 5.4 µM. It also gave an IC50 (second compound 1 µM) of 5.82 µM, an IC50 (second compound 3.16 µM) of 5.92 µM and an IC50 (second compound 10 µM) of 5.63 µM. It also gave a viability, T/C [5] of 105%, a viability, T/C [6] of 103% and a viability, T/C [37] of 104%. The viability, T/C [38] was 89.2%, the viability, T/C [39] was 73.4% and the viability, T/C [40] was 2.78%. It also gave a viability, T/C [11] of 132%, a viability, T/C [12] of 83.2% and a viability, T/C [41] of 89%. The viability, T/C [42] was 93.8%, the viability, T/C [43] was 83.8% and the viability, T/C [44] was 4.23%. For the same compound, the viability, T/C [17] was 107%, the viability, T/C [18] was 110% and the viability, T/C [45] was 85.2%. For the same compound, the viability, T/C [46] was 107%, the viability, T/C [47] was 89.6% and the viability, T/C [48] was 4.32%. It also gave a viability, T/C [23] of 104%, a viability, T/C [24] of 99.2% and a viability, T/C [49] of 93%. It also gave a viability, T/C [50] of 99.6%, a viability, T/C [51] of 108% and a viability, T/C [52] of 4.79%. It also gave a viability, T/C [29] of 98.6%, a viability, T/C [30] of 106% and a viability, T/C [53] of 100%. For the same compound, the viability, T/C [54] was 98.8%, the viability, T/C [55] was 113% and the viability, T/C [56] was 5.45%. For the same compound, the viability, T/C [35] was 98.2%, the viability, T/C [36] was 93.9% and the viability, T/C [57] was 101%. The viability, T/C [58] was 95.6%, the viability, T/C [59] was 93.5% and the viability, T/C [60] was 6.8%.
